One block for each compound: values may come before it.
Assay: photoluminescence quantum yield (fraction); solvent given as SMILES

- photoluminescence quantum yield (in C1CCCCC1): 0.016
- photoluminescence quantum yield (in C1CCOC1): 0.016
- photoluminescence quantum yield (in C1COCCO1): 0.026
- photoluminescence quantum yield (in CC#N): 0.004
- photoluminescence quantum yield (in CCOC(C)=O): 0.014
- photoluminescence quantum yield (in CN(C)C=O): 0.006
- photoluminescence quantum yield (in CO): 0.001
- photoluminescence quantum yield (in ClC(Cl)Cl): 0.022
SMILES: O=C(O)c1ccccc1Nc1cccc(C(F)(F)F)c1

- photoluminescence quantum yield (in CS(C)=O): 0.53
SMILES: N#Cc1c(/C=C/c2ccc(N(c3ccccc3)c3ccccc3)cc2)cc(-c2cccs2)cc1N1CCCCC1

- photoluminescence quantum yield (in C1CCCCC1): 0.66
SMILES: C[Si](C)(C)c1ccc(C#N)c2ccccc12

- photoluminescence quantum yield (in CCO): 0.44
- photoluminescence quantum yield (in O): 0.28
SMILES: CC/[NH+]=c1\cc2oc3cc(NCCC(=O)O)c4ccccc4c3nc-2cc1C

- photoluminescence quantum yield (in ClC(Cl)Cl): 0.28
SMILES: O=C1[C@@H]2[C@H](C(=O)N1c1cccc3cc4ccccc4cc13)[C@H]1C[C@@H]2c2c1c(-c1ccccc1)c1ccccc1c2-c1ccccc1

SMILES: O=C(O)c1ccc2ccc3cccc4ccc1c2c34
- photoluminescence quantum yield (in C1CCOC1): 0.57
- photoluminescence quantum yield (in CC#N): 0.11
- photoluminescence quantum yield (in CCCCCC): 0.56
- photoluminescence quantum yield (in CCO): 0.038
- photoluminescence quantum yield (in CN(C)C=O): 0.003
- photoluminescence quantum yield (in CO): 0.097
- photoluminescence quantum yield (in Cc1ccccc1): 0.73
- photoluminescence quantum yield (in ClCCl): 0.63

- photoluminescence quantum yield (in ClC(Cl)Cl): 0.33
SMILES: Clc1ccc(-c2nc(-c3ccccc3)sc2N(c2ccccc2)c2ccccc2)cc1

- photoluminescence quantum yield (in CC#N): 0.066
- photoluminescence quantum yield (in CCCCCCC): 0.004
- photoluminescence quantum yield (in CO): 0.002
- photoluminescence quantum yield (in O): 0.003
SMILES: O=[N+]([O-])c1ccc(/C=C/c2cn(S(=O)(=O)c3ccccc3)c3ccccc23)cc1

SMILES: COc1ccc(/C=C2\OC(=O)c3ccccc32)cc1
- photoluminescence quantum yield (in CC(C)=O): 0.01
- photoluminescence quantum yield (in CC(C)CO): 0.07
- photoluminescence quantum yield (in CC(C)O): 0.1
- photoluminescence quantum yield (in CCCO): 0.13
- photoluminescence quantum yield (in CCO): 0.14
- photoluminescence quantum yield (in CCOC(C)=O): 0.008
- photoluminescence quantum yield (in CCOCC): 0.001
- photoluminescence quantum yield (in CO): 0.14

SMILES: Cc1cc(-c2ccc(-n3c4ccccc4c4ccccc43)cc2)nc(-c2ccc(-n3c4ccccc4c4ccccc43)cc2)n1
- photoluminescence quantum yield (in C1CCOC1): 0.59
- photoluminescence quantum yield (in CN(C)C=O): 0.63
- photoluminescence quantum yield (in Cc1ccccc1): 0.64
- photoluminescence quantum yield (in ClC(Cl)Cl): 0.61

- photoluminescence quantum yield (in ClCCl): 0.7
SMILES: CN(C)c1cc(-c2ccc(C#Cc3ccccc3)cc2)cc2ccccc12

- photoluminescence quantum yield (in ClC(Cl)Cl): 0.14
SMILES: CN(C)c1ccc(-c2ccc(-c3cc(-c4ccccc4)c(-c4ccccc4)c(-c4ccccc4)c3-c3ccccc3)cc2)cc1

SMILES: F[B-]1(F)n2cccc2C=C2c3ccccc3C(c3ccc[nH]3)=[N+]21
- photoluminescence quantum yield (in C1CCOC1): 0.82
- photoluminescence quantum yield (in CC#N): 0.8
- photoluminescence quantum yield (in CCCCCC): 0.83
- photoluminescence quantum yield (in CO): 0.76
- photoluminescence quantum yield (in Cc1ccccc1): 0.81
- photoluminescence quantum yield (in ClCCl): 0.8

- photoluminescence quantum yield (in CC#N): 0.18
SMILES: Fc1cccc(-[c+]2c3ccccc3oc3ccccc32)c1

- photoluminescence quantum yield (in CC#N): 0.016
SMILES: Cc1ccc(C#Cc2ccc3ccc(=O)oc3c2)cc1

- photoluminescence quantum yield (in CC1CCCO1): 0.75
SMILES: CC1=CC(/C=C/c2ccc(C)cc2)=[N+]2C1=C(c1ccccc1)c1c(C)cc(/C=C/c3ccc(C)cc3)n1[B-]2(F)F

- photoluminescence quantum yield (in ClC(Cl)Cl): 0.08
SMILES: N#Cc1c(C#N)c2cc(F)ccc2c2ccc(F)cc12

- photoluminescence quantum yield (in CS(C)=O): 0.03
SMILES: CC(=O)Nc1ccc(S(=O)(=O)O)c(/N=N/c2c(O)c3ccccc3n(C)c2=O)c1

SMILES: Cc1cc(C)c(C2=C3C=C(/C=C/C(=O)OC(C)(C)C)C=[N+]3[B-](F)(F)n3c2ccc3N2CCOCC2)c(C)c1
- photoluminescence quantum yield (in CC#N): 0.13
- photoluminescence quantum yield (in CCCCCC): 0.88
- photoluminescence quantum yield (in CN(C)C=O): 0.15
- photoluminescence quantum yield (in CO): 0.21
- photoluminescence quantum yield (in Cc1ccccc1): 0.64
- photoluminescence quantum yield (in ClCCl): 0.49

- photoluminescence quantum yield (in O): 0.18
SMILES: CCNc1ccc2c(c1)C(C)(C)C(=O)C=C2

- photoluminescence quantum yield (in ClCCl): 1
SMILES: CC(C)(C)c1ccc(-n2c(-c3ccc(-c4ccc(N(c5ccccc5)c5ccccc5)cc4)cc3)nc3c4ccccc4c4ccccc4c32)cc1

- photoluminescence quantum yield (in CC#N): 0.24
- photoluminescence quantum yield (in CCCCCC): 0.17
SMILES: CCN(CC)c1ccc(-n2c(C)ccc2C)cc1

SMILES: CCCCCCC(CCCCCC)N1C(=O)c2cccc3c(-c4ccc(N(C)C)cc4)ccc(c23)C1=O
- photoluminescence quantum yield (in CCCCCC): 0.7
- photoluminescence quantum yield (in CCCCCCCCCCCCCC): 0.73
- photoluminescence quantum yield (in CCCCCCCCCCCO): 0.14
- photoluminescence quantum yield (in CCCCO): 0.013
- photoluminescence quantum yield (in CN(C)C=O): 0.0037
- photoluminescence quantum yield (in Cc1ccccc1): 0.65
- photoluminescence quantum yield (in ClC(Cl)Cl): 0.64

- photoluminescence quantum yield (in CN(C)C=O): 0.392
SMILES: Cc1nc2cccc(-c3nc4ccccc4o3)c2c(=O)[nH]1

- photoluminescence quantum yield (in C1CCCCC1): 0.6
SMILES: c1cc(-c2ccc3c(c2)CCCO3)ccc1-c1ccc2c(c1)CCCO2

- photoluminescence quantum yield (in CC#N): 0.96
SMILES: F[B-]1(F)OC(c2ccc3c(c2)Cc2ccccc2-3)=CC(c2ccccc2)=[O+]1

- photoluminescence quantum yield (in ClCCl): 0.63
SMILES: Cc1nc(-c2ccccc2O)n2c1CCCC2
